For one molecule, IC50, Activity and Tmax results are on record in ChEMBL document CHEMBL4321852, “Structure-Based and Property-Driven Optimization of N-Aryl Imidazoles toward Potent and Selective Oral RORγt Inhibitors” (J Med Chem, 2019).

Activity calls are given as the source filed them. The rule behind the calls is not given here.

In data set [1] the target is T1, Vitamin D3 receptor (Homo sapiens, UniProt P11473).
T1 sequence (P11473 whole entry): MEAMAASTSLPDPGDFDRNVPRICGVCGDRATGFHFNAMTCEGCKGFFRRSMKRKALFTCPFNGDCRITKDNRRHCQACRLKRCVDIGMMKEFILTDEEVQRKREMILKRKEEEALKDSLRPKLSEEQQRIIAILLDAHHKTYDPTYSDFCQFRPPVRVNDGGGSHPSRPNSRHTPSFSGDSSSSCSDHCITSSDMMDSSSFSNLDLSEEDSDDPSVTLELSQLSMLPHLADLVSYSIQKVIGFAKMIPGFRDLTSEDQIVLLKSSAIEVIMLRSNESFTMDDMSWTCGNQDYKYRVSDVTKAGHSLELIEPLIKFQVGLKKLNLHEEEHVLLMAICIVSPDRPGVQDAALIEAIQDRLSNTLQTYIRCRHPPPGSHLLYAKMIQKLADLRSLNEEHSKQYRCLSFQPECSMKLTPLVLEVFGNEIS
Put plainly: Inhibition of Gal4-tagged VDR LBD (unknown origin) by cell based luciferase reporter gene assay.

Data set [2] deals with Rattus norvegicus. Briefly: Anti-inflammatory activity in mBSA/CFA-immunized Lewis rat delayed-type hypersensitivity model assessed as reduction in frequencies of IL-17-producing draining lymph node cells at 1 to 15 mg/kg, po via gavage administered twice daily for 2 days treated prior to mBSA/CFA challenge relative to control. The data set is classed as functional. On the set-up: scale not given: the % may be the effect or the level left.

The subject of data set [3] is Rattus norvegicus. Put plainly: Anti-inflammatory activity in mBSA/CFA-immunized Lewis rat delayed-type hypersensitivity model assessed as reduction in frequencies of IL-17-producing draining lymph node cells at 1 to 15 mg/kg, po via gavage administered twice daily for 2 days treated prior to mBSA/CFA challenge. Format: functional, organism-based.
Data set [4] addresses T2, Estrogen receptor (Homo sapiens, UniProt P03372).
T2 sequence (P03372 whole entry): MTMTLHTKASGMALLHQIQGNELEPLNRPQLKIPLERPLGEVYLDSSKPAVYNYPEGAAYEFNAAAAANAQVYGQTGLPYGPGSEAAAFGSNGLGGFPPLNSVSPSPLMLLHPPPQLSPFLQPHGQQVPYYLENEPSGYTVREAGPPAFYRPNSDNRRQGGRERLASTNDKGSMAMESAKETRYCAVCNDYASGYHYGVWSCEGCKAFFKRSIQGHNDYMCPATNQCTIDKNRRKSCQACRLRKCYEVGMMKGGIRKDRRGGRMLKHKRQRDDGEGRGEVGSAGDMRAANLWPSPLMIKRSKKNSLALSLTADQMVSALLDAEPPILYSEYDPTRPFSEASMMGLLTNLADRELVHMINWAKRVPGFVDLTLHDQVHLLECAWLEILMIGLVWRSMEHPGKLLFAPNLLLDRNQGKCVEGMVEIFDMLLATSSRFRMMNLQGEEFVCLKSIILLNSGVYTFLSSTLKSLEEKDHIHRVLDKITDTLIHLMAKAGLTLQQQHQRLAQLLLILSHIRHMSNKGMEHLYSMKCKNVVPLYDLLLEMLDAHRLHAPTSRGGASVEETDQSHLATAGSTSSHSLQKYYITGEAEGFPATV
Briefly: Inhibition of Gal4-tagged ERalpha LBD (unknown origin) by cell based luciferase reporter gene assay.

Data set [5] deals with Rattus norvegicus. Briefly: Anti-inflammatory activity in mBSA/CFA-immunized Lewis rat delayed-type hypersensitivity model assessed as reduction in ear swelling at 1 mg/kg, po via gavage administered twice daily for 2 days treated prior to mBSA/CFA challenge measured after up to 50 hrs. The data set is classed as functional, organism-based.
Data set [6] can be described thus: Tmax in DA rat at 5 mg/kg, po. The data set is classed as ADME, organism-based. The following applies: in vivo.
The target in data set [7] is T3, Bile acid receptor (Homo sapiens, UniProt Q96RI1).
T3 sequence (Q96RI1 whole entry): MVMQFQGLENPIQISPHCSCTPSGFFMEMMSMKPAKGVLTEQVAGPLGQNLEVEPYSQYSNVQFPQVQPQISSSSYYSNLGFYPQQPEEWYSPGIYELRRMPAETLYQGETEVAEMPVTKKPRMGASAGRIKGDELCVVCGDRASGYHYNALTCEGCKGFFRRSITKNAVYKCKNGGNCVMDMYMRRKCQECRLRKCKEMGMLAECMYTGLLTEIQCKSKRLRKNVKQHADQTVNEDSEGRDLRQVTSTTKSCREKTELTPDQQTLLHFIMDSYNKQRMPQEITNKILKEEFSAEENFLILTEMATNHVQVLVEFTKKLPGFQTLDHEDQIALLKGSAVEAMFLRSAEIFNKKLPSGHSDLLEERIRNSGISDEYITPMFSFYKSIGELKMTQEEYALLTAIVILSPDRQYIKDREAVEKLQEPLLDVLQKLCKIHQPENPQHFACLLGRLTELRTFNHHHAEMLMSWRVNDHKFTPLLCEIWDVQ
Briefly: Inhibition of Gal4-tagged FXR LBD (unknown origin) by cell based luciferase reporter gene assay.

Data set [8] addresses T4, Glucocorticoid receptor (Homo sapiens, UniProt P04150).
T4 sequence (P04150 whole entry): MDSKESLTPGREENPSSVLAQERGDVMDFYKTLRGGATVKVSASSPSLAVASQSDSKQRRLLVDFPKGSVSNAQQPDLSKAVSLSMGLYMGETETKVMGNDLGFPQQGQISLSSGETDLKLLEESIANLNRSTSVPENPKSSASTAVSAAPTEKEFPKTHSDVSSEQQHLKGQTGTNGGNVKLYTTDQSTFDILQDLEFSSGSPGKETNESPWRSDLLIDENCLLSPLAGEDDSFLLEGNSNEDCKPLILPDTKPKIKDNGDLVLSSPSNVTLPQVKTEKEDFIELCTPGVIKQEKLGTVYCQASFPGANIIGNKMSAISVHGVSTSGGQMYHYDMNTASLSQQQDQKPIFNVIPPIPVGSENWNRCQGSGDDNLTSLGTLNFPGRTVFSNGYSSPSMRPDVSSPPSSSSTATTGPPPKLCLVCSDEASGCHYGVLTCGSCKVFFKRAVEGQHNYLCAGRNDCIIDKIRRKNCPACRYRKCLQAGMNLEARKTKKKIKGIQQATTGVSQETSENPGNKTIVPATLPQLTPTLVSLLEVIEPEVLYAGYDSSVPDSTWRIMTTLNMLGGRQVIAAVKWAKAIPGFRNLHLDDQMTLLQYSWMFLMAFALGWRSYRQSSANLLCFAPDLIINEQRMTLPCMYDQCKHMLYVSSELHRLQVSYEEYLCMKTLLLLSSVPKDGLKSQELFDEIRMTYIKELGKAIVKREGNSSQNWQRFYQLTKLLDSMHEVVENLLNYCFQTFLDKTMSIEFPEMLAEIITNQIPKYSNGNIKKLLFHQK
Briefly: Inhibition of Gal4-tagged GR LBD (unknown origin) by cell based luciferase reporter gene assay. For orientation: A reporter such as luciferase makes a cellular process visible.

What is called IC50 is the concentration that inhibits the measured activity by half. For orientation: Tmax means the time at which the peak concentration occurs. `Cc1c(C2(C(F)(F)F)CC2)nc(C2CC2)n1-c1c(Cl)ccc(N2CC3(CC(C(=O)O)C3)C2)c1Cl` (single isomer, unassigned; atropisomer): the IC50 in data set [1], in data set [4], in data set [7] and in data set [8] was more than 10 µM in each case. The Activity in data set [2] is 50%; in data set [3] it was “Dose-dependent effect”. Also, the result in data set [5] was inactive. In addition, in data set [6], the time of peak concentration (Tmax) was 1 h.
